The values that follow come from ChEMBL document CHEMBL5608182, “Synthesis and evaluation of neuroactive steroids with novel pharmacophore at C-21 let identify a compound with advantageous PK profile and higher EC50 and Emax as PAM on GABAA receptor” (Eur J Med Chem, 2024).

Each structure is given as a SMILES string.

Chain of Gamma-aminobutyric acid receptor subunit alpha-4/beta3/delta (P28472 whole entry): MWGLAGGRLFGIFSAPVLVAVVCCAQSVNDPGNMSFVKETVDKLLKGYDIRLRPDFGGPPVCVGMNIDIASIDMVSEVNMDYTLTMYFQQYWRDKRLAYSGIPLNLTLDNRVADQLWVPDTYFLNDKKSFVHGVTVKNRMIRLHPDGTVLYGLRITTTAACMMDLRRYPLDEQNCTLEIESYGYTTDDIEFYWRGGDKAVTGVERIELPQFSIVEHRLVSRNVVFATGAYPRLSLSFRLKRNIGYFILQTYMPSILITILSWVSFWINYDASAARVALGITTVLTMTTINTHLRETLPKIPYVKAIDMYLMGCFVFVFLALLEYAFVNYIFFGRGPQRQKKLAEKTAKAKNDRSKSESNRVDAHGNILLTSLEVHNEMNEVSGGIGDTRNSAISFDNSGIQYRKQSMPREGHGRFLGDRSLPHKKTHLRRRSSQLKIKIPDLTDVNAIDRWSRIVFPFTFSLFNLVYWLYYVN
Chain of Gamma-aminobutyric acid receptor subunit alpha-4/beta3/delta (P48169 whole entry): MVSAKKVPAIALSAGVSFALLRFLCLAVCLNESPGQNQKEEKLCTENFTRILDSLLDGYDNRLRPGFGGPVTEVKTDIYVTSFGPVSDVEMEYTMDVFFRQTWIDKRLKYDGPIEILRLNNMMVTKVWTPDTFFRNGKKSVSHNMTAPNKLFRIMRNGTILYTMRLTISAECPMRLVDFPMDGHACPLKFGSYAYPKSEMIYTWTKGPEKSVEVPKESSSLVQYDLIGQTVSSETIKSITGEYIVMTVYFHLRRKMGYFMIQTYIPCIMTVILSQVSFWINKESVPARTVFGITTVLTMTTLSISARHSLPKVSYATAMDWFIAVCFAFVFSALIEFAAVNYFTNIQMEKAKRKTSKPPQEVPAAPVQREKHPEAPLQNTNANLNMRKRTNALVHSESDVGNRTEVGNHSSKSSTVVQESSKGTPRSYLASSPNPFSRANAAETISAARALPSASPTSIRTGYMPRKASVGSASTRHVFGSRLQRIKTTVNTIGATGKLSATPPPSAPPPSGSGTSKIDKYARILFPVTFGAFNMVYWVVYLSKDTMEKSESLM
Chain of Gamma-aminobutyric acid receptor subunit alpha-4/beta3/delta (O14764 whole entry): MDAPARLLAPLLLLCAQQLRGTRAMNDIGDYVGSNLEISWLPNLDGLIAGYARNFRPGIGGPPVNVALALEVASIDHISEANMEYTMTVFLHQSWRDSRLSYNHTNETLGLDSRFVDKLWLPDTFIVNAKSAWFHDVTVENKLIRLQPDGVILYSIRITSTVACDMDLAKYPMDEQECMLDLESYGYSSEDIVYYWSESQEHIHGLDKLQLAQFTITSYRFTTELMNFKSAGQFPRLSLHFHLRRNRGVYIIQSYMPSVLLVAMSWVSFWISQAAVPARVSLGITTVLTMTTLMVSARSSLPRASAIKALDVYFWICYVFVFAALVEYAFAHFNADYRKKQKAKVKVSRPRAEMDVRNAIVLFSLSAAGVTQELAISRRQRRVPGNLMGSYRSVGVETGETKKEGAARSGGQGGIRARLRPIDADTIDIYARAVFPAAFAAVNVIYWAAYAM

Tested on in the first data set: not listed separately
Put plainly: Metabolic stability in human liver microsomes assessed as compound remaining at 1 uM preincubated for 10 mins followed by NADPH addition by LC-MS analysis. It counts as ADME, Microsome. Particulars: read-out: Stability. Background: Liver microsomes are a subcellular fraction often used to study metabolism.
For `C[C@@]1(O)CC[C@H]2[C@H](CC[C@@H]3[C@@H]2CC[C@]2(C)[C@@H](C(=O)Cn4cnn(-c5ccnc(F)c5)c4=O)CC[C@@H]32)C1`, the remaining at 1 µM is 48.1%.
On the same count and under the same terms, then `COc1cccc(-n2ncn(CC(=O)[C@H]3CC[C@H]4[C@@H]5CC[C@@H]6C[C@](C)(O)CC[C@@H]6[C@H]5CC[C@]34C)c2=O)c1`, with 43.5%.

A further data set has as its target GABA-A receptor; alpha-1/beta-2/gamma-2 (Homo sapiens) (UniProt P14867+P47870+P18507). Put plainly: Positive allosteric modulation of synaptic alpha1beta2gamma2 GABA-A receptor (unknown origin) transfected in LTK cells assessed as potentiation of GABA-induced peak current amplitude by measuring maximal efficacy at 0.01 to 10 uM at -80 mV holding potential preincubated for 30 secs followed by GABA stimulation for 2 secs by Q-patch assay relative to control. Type of data set: cell-based. The note with it: filed as positive allosteric modulator, dose 0.01-10 µM, time 32.0 sec.
Regarding `C[C@@]1(O)CC[C@H]2[C@H](CC[C@@H]3[C@@H]2CC[C@]2(C)[C@@H](C(=O)Cn4cnn(-c5ccnc(F)c5)c4=O)CC[C@@H]32)C1`, the Emax (commonly the greatest response seen or fitted, relative to the assay's reference) was determined as 775%.
As for `COc1cccc(-n2ncn(CC(=O)[C@H]3CC[C@H]4[C@@H]5CC[C@@H]6C[C@](C)(O)CC[C@@H]6[C@H]5CC[C@]34C)c2=O)c1`, the maximal effect (Emax) stood at 410%.

Tested on in the next data set: not listed separately
Put plainly: Drug concentration in Sprague-Dawley rat brain at 24.4 micromol/kg, IG measured after 2 hrs by LC-MS/MS analysis. It counts as ADME, tissue-based. Particulars: in vivo, po, dose 24.4 µmol/kg.
`C[C@@]1(O)CC[C@H]2[C@H](CC[C@@H]3[C@@H]2CC[C@]2(C)[C@@H](C(=O)Cn4cnn(-c5ccnc(F)c5)c4=O)CC[C@@H]32)C1` gave a Ct of 1188 nmol/kg.

Tested on in another data set: not listed separately
Description: Metabolic stability in human liver microsomes assessed as intrinsic clearance at 1 uM preincubated for 10 mins followed by NADPH addition by LC-MS analysis. It counts as ADME, Microsome. Particulars: read-out: CLH.
For the molecule `C[C@@]1(O)CC[C@H]2[C@H](CC[C@@H]3[C@@H]2CC[C@]2(C)[C@@H](C(=O)Cn4cnn(-c5ccnc(F)c5)c4=O)CC[C@@H]32)C1`, the CLint scaled at 1 µM came out at 23 mL/min/kg.
`COc1cccc(-n2ncn(CC(=O)[C@H]3CC[C@H]4[C@@H]5CC[C@@H]6C[C@](C)(O)CC[C@@H]6[C@H]5CC[C@]34C)c2=O)c1`: the CLint scaled at 1 µM is 24 mL/min/kg.

Tested on in another data set: not listed separately
Put plainly: Drug concentration in Sprague-Dawley rat brain at 24.4 micromol/kg, IG measured after 0.5 hrs by LC-MS/MS analysis. Type of data set: ADME, tissue-based. Particulars: in vivo, po, dose 24.4 µmol/kg.
As for `C[C@@]1(O)CC[C@H]2[C@H](CC[C@@H]3[C@@H]2CC[C@]2(C)[C@@H](C(=O)Cn4cnn(-c5ccnc(F)c5)c4=O)CC[C@@H]32)C1`, the Ct came to 708 nmol/kg.

The next data set has as its target T1, GABA-A receptor; alpha-1/beta-2/gamma-2 (Homo sapiens, UniProt P14867+P18507+P47870).
T1 sequence (P14867 whole entry): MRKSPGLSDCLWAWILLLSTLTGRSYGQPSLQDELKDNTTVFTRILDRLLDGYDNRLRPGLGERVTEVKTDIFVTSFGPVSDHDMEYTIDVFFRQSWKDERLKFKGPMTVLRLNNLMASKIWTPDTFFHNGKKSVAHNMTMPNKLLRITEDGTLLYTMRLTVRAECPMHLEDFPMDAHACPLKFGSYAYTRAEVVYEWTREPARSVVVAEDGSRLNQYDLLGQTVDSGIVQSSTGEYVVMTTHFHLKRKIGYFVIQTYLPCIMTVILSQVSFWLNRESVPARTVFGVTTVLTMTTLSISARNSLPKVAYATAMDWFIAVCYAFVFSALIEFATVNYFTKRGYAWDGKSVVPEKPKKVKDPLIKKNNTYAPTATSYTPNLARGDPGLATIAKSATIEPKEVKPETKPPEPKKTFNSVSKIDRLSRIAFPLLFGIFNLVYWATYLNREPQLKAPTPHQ
T1 sequence (P47870 whole entry): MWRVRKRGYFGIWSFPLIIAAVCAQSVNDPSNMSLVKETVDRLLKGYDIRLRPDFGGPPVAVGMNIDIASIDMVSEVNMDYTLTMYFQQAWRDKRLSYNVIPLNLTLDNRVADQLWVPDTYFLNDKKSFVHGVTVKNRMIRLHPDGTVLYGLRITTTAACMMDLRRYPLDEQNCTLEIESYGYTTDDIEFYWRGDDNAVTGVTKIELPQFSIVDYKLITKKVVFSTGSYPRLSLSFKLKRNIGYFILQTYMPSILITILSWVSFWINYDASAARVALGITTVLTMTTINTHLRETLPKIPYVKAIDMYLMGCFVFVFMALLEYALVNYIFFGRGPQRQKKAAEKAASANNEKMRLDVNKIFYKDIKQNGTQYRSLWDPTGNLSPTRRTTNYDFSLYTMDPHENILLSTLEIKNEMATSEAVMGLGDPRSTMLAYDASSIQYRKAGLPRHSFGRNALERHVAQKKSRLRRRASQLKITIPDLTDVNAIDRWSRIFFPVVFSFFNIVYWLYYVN
T1 sequence (P18507 whole entry): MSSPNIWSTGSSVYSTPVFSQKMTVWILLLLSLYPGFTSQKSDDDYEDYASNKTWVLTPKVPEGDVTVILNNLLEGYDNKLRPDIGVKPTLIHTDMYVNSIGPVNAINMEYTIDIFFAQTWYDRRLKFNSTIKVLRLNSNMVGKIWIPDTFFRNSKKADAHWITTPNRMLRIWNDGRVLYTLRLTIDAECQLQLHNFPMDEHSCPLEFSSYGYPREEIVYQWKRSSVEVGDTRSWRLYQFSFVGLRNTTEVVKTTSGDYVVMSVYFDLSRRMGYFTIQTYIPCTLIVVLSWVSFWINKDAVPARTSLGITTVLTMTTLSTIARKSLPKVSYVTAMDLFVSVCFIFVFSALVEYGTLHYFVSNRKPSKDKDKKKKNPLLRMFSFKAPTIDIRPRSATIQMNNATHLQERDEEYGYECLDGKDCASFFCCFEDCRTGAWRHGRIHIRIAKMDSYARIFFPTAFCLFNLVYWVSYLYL
Description: Positive allosteric modulation of synaptic alpha1beta2gamma2 GABA-A receptor (unknown origin) transfected in LTK cells assessed as potentiation of GABA-induced peak current amplitude at -80 mV holding potential preincubated for 30 secs followed by GABA stimulation for 2 secs by Q-patch assay. It counts as cell-based.
Details: not given
On to `C[C@@]1(O)CC[C@H]2[C@H](CC[C@@H]3[C@@H]2CC[C@]2(C)[C@@H](C(=O)Cn4cnn(-c5ccnc(F)c5)c4=O)CC[C@@H]32)C1`, for which the concentration for a half-maximal effect (EC50) (usually the concentration at which the effect is half-maximal) stood at 109 nM.
On the same count and under the same terms, then `COc1cccc(-n2ncn(CC(=O)[C@H]3CC[C@H]4[C@@H]5CC[C@@H]6C[C@](C)(O)CC[C@@H]6[C@H]5CC[C@]34C)c2=O)c1`, with 26 nM.

Tested on in the next data set: not listed separately
Description: Metabolic stability in Sprague-Dawley rat liver microsomes assessed as compound remaining at 1 uM preincubated for 10 mins followed by NADPH addition by LC-MS analysis. The note with it: read-out: Stability. It counts as ADME, Microsome.
For the molecule `C[C@@]1(O)CC[C@H]2[C@H](CC[C@@H]3[C@@H]2CC[C@]2(C)[C@@H](C(=O)Cn4cnn(-c5ccnc(F)c5)c4=O)CC[C@@H]32)C1`, the remaining at 1 µM worked out at 32.2%.
As to `COc1cccc(-n2ncn(CC(=O)[C@H]3CC[C@H]4[C@@H]5CC[C@@H]6C[C@](C)(O)CC[C@@H]6[C@H]5CC[C@]34C)c2=O)c1`, the remaining at 1 µM came to 14.2%.

Tested on in the next data set: not listed separately
Put plainly: Drug concentration in Sprague-Dawley rat brain at 24.4 micromol/kg, IG measured after 6 hrs by LC-MS/MS analysis. Type of data set: ADME, tissue-based. Particulars: in vivo, po, dose 24.4 µmol/kg.
In turn, `C[C@@]1(O)CC[C@H]2[C@H](CC[C@@H]3[C@@H]2CC[C@]2(C)[C@@H](C(=O)Cn4cnn(-c5ccnc(F)c5)c4=O)CC[C@@H]32)C1` yielded a Ct of 764 nmol/kg.

The target of the next data set is Gamma-aminobutyric acid receptor subunit alpha-4/beta3/delta (Homo sapiens) (UniProt P28472+P48169+O14764). Put plainly: Positive allosteric modulation of extrasynaptic alpha4beta3delta GABA-A receptor (unknown origin) transfected in CHO cells assessed as potentiation of GABA-induced peak current amplitude by measuring maximal efficacy at 0.01 to 10 uM at -80 mV holding potential preincubated for 30 secs followed by GABA stimulation for 2 secs by manual patch assay relative to control. It counts as cell-based. The note with it: filed as positive allosteric modulator, dose 0.01-10 µM, time 32.0 sec.
`C[C@@]1(O)CC[C@H]2[C@H](CC[C@@H]3[C@@H]2CC[C@]2(C)[C@@H](C(=O)Cn4cnn(-c5ccnc(F)c5)c4=O)CC[C@@H]32)C1`: the Emax was found to be 913%.
As to `COc1cccc(-n2ncn(CC(=O)[C@H]3CC[C@H]4[C@@H]5CC[C@@H]6C[C@](C)(O)CC[C@@H]6[C@H]5CC[C@]34C)c2=O)c1`, the Emax is 570%.

A further data set has as its target Gamma-aminobutyric acid receptor subunit alpha-4/beta3/delta (Homo sapiens, UniProt O14764+P28472+P48169). Put plainly: Positive allosteric modulation of extrasynaptic alpha4beta3delta GABA-A receptor (unknown origin) transfected in CHO cells assessed as potentiation of GABA-induced peak current amplitude at -80 mV holding potential preincubated for 30 secs followed by GABA stimulation for 2 secs by manual patch assay. It counts as cell-based.
Details: not given
As for `C[C@@]1(O)CC[C@H]2[C@H](CC[C@@H]3[C@@H]2CC[C@]2(C)[C@@H](C(=O)Cn4cnn(-c5ccnc(F)c5)c4=O)CC[C@@H]32)C1`, the half-maximal effective concentration (EC50) came to 56 nM.
Turning to `COc1cccc(-n2ncn(CC(=O)[C@H]3CC[C@H]4[C@@H]5CC[C@@H]6C[C@](C)(O)CC[C@@H]6[C@H]5CC[C@]34C)c2=O)c1`, the EC50 worked out at 21 nM.

Tested on in a further data set: not listed separately
Description: Metabolic stability in Sprague-Dawley rat liver microsomes assessed as intrinsic clearance at 1 uM preincubated for 10 mins followed by NADPH addition by LC-MS analysis. Type of data set: ADME, Microsome. The note with it: read-out: CLH.
`C[C@@]1(O)CC[C@H]2[C@H](CC[C@@H]3[C@@H]2CC[C@]2(C)[C@@H](C(=O)Cn4cnn(-c5ccnc(F)c5)c4=O)CC[C@@H]32)C1`: the CLint scaled at 1 µM was 69 mL/min/kg.
On the same count and under the same terms, then `COc1cccc(-n2ncn(CC(=O)[C@H]3CC[C@H]4[C@@H]5CC[C@@H]6C[C@](C)(O)CC[C@@H]6[C@H]5CC[C@]34C)c2=O)c1`, with 176 mL/min/kg.
